Results published in the supplement of paper PMC10307832.

What was measured:
Assay in all cases: relative viability (nuclei count vs DMSO), 5 days (fraction); higher = more cells survive
NCI-H647 = system: NCI-H647
How it was run: (§1)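 Nuclei were stained with Hoechst during a one-step fixation (final 0.05% Triton X-100, 1% formaldehyde, 1 ug/ml Hoechst) carried out 5 days after dosing, then counted on 4× images. The cells, lung cancer lines in 1536-well plates, had been dosed by pin tool the day after seeding with one drug alone or a fixed anchor-drug dose plus five library-drug doses (not always all listed) in √10 steps. Relative viability is the nuclei count in treated wells divided by that in vehicle wells, and each value is the median of duplicate plates.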

COR-L 105 = system: COR-L 105
How it was run: as §1

NCI-H2087 = system: NCI-H2087
How it was run: as §1

NCI-H520 = system: NCI-H520
How it was run: as §1

LC-2-ad = system: LC-2-ad
How it was run: as §1

NCI-H23 = system: NCI-H23
How it was run: as §1

HCC-78 = system: HCC-78
How it was run: as §1

RERF-LC-KJ = system: RERF-LC-KJ
How it was run: as §1

HCC-827 = system: HCC-827
How it was run: as §1

EPLC-272H = system: EPLC-272H
How it was run: as §1

NCI-H2347 = system: NCI-H2347
How it was run: as §1

PC-14 = system: PC-14
How it was run: as §1

NCI-H650 = system: NCI-H650
How it was run: as §1

NCI-H2126 = system: NCI-H2126
How it was run: as §1

NCI-H1915 = system: NCI-H1915
How it was run: as §1

ChaGo-K-1 = system: ChaGo-K-1
How it was run: as §1

NCI-H2405 = system: NCI-H2405
How it was run: as §1

201T = system: 201T
How it was run: as §1

LCLC-97TM1 = system: LCLC-97TM1
How it was run: as §1

NCI-H661 = system: NCI-H661
How it was run: as §1

NCI-H1666 = system: NCI-H1666
How it was run: as §1

H3255 = system: H3255
How it was run: as §1

Question: For `CCN(CC)CCCCNc1ncc2cc(-c3cc(OC)cc(OC)c3)c(NC(=O)NC(C)(C)C)nc2n1` + CC(=O)Nc1cccc(-n2c(=O)n(C3CC3)c(=O)c3c(Nc4ccc(I)cc4F)n(C)c(=O)c(C)c32)c1 [Trametinib] (partner 0.02 µM), which relative viability (NCI-H647; first compound 0.01 µM) is on record?
Answer: 0.382

Question: And the relative viability (NCI-H647; first compound 0.03162 µM)?
Answer: 0.517

Question: And the relative viability (NCI-H647; first compound 0.1 µM)?
Answer: 0.512

Question: And the relative viability (NCI-H647; first compound 0.3162 µM)?
Answer: 0.456

Question: What about the relative viability (NCI-H647; first compound 1 µM) of the same compound?
Answer: 0.267

Question: And the relative viability (COR-L 105; first compound 0.01 µM)?
Answer: 0.417

Question: What about the relative viability (COR-L 105; first compound 0.03162 µM) of the same compound?
Answer: 0.406

Question: And the relative viability (COR-L 105; first compound 0.1 µM)?
Answer: 0.483

Question: And the relative viability (COR-L 105; first compound 0.3162 µM)?
Answer: 0.45

Question: And the relative viability (COR-L 105; first compound 1 µM)?
Answer: 0.451

Question: What about the relative viability (NCI-H2087; first compound 0.01 µM) of the same compound?
Answer: 0.202

Question: What about the relative viability (NCI-H2087; first compound 0.03162 µM) of the same compound?
Answer: 0.171

Question: And the relative viability (NCI-H2087; first compound 0.1 µM)?
Answer: 0.217

Question: And the relative viability (NCI-H2087; first compound 0.3162 µM)?
Answer: 0.189

Question: And the relative viability (NCI-H2087; first compound 1 µM)?
Answer: 0.209

Question: What about the relative viability (NCI-H520; first compound 0.01 µM) of the same compound?
Answer: 0.684

Question: What about the relative viability (NCI-H520; first compound 0.03162 µM) of the same compound?
Answer: 0.538

Question: And the relative viability (NCI-H520; first compound 0.1 µM)?
Answer: 0.722

Question: What about the relative viability (NCI-H520; first compound 0.3162 µM) of the same compound?
Answer: 0.287

Question: What about the relative viability (NCI-H520; first compound 1 µM) of the same compound?
Answer: 0.216

Question: What about the relative viability (LC-2-ad; first compound 0.01 µM) of the same compound?
Answer: 0.874

Question: And the relative viability (LC-2-ad; first compound 0.03162 µM)?
Answer: 1.02

Question: What about the relative viability (LC-2-ad; first compound 0.1 µM) of the same compound?
Answer: 0.992

Question: And the relative viability (LC-2-ad; first compound 0.3162 µM)?
Answer: 0.967

Question: And the relative viability (LC-2-ad; first compound 1 µM)?
Answer: 0.841

Question: And the relative viability (NCI-H23; first compound 0.01 µM)?
Answer: 0.321

Question: And the relative viability (NCI-H23; first compound 0.03162 µM)?
Answer: 0.341

Question: What about the relative viability (NCI-H23; first compound 0.1 µM) of the same compound?
Answer: 0.432

Question: And the relative viability (NCI-H23; first compound 0.3162 µM)?
Answer: 0.4

Question: What about the relative viability (NCI-H23; first compound 1 µM) of the same compound?
Answer: 0.319

Question: What about the relative viability (HCC-78; first compound 0.01 µM) of the same compound?
Answer: 0.874

Question: And the relative viability (HCC-78; first compound 0.03162 µM)?
Answer: 0.685

Question: And the relative viability (HCC-78; first compound 0.1 µM)?
Answer: 0.842

Question: And the relative viability (HCC-78; first compound 0.3162 µM)?
Answer: 0.819

Question: And the relative viability (HCC-78; first compound 1 µM)?
Answer: 0.76

Question: What about the relative viability (RERF-LC-KJ; first compound 0.01 µM) of the same compound?
Answer: 0.925

Question: And the relative viability (RERF-LC-KJ; first compound 0.03162 µM)?
Answer: 0.923

Question: And the relative viability (RERF-LC-KJ; first compound 0.1 µM)?
Answer: 0.94

Question: And the relative viability (RERF-LC-KJ; first compound 0.3162 µM)?
Answer: 0.906

Question: What about the relative viability (RERF-LC-KJ; first compound 1 µM) of the same compound?
Answer: 0.818

Question: What about the relative viability (HCC-827; first compound 0.01 µM) of the same compound?
Answer: 0.539

Question: What about the relative viability (HCC-827; first compound 0.03162 µM) of the same compound?
Answer: 0.59

Question: And the relative viability (HCC-827; first compound 0.1 µM)?
Answer: 0.585

Question: And the relative viability (HCC-827; first compound 0.3162 µM)?
Answer: 0.587

Question: And the relative viability (HCC-827; first compound 1 µM)?
Answer: 0.516

Question: What about the relative viability (EPLC-272H; first compound 0.01 µM) of the same compound?
Answer: 0.263

Question: And the relative viability (EPLC-272H; first compound 0.1 µM)?
Answer: 0.277

Question: And the relative viability (EPLC-272H; first compound 0.3162 µM)?
Answer: 0.281

Question: What about the relative viability (EPLC-272H; first compound 1 µM) of the same compound?
Answer: 0.215

Question: And the relative viability (NCI-H2347; first compound 0.01 µM)?
Answer: 0.253

Question: What about the relative viability (NCI-H2347; first compound 0.03162 µM) of the same compound?
Answer: 0.261

Question: What about the relative viability (NCI-H2347; first compound 0.1 µM) of the same compound?
Answer: 0.293

Question: What about the relative viability (NCI-H2347; first compound 0.3162 µM) of the same compound?
Answer: 0.367

Question: What about the relative viability (NCI-H2347; first compound 1 µM) of the same compound?
Answer: 0.321

Question: And the relative viability (PC-14; first compound 0.01 µM)?
Answer: 0.956

Question: And the relative viability (PC-14; first compound 0.03162 µM)?
Answer: 0.836

Question: And the relative viability (PC-14; first compound 0.1 µM)?
Answer: 1.16

Question: What about the relative viability (PC-14; first compound 0.3162 µM) of the same compound?
Answer: 0.759

Question: What about the relative viability (PC-14; first compound 1 µM) of the same compound?
Answer: 0.591

Question: And the relative viability (NCI-H650; first compound 0.01 µM)?
Answer: 1.03

Question: And the relative viability (NCI-H650; first compound 0.03162 µM)?
Answer: 1.01

Question: What about the relative viability (NCI-H650; first compound 0.1 µM) of the same compound?
Answer: 0.962

Question: And the relative viability (NCI-H650; first compound 0.3162 µM)?
Answer: 1.07

Question: And the relative viability (NCI-H650; first compound 1 µM)?
Answer: 0.925

Question: And the relative viability (NCI-H2126; first compound 0.01 µM)?
Answer: 0.533

Question: And the relative viability (NCI-H2126; first compound 0.03162 µM)?
Answer: 0.578

Question: What about the relative viability (NCI-H2126; first compound 0.1 µM) of the same compound?
Answer: 0.58

Question: And the relative viability (NCI-H2126; first compound 0.3162 µM)?
Answer: 0.58

Question: What about the relative viability (NCI-H2126; first compound 1 µM) of the same compound?
Answer: 0.578

Question: What about the relative viability (NCI-H1915; first compound 0.01 µM) of the same compound?
Answer: 0.303

Question: And the relative viability (NCI-H1915; first compound 0.03162 µM)?
Answer: 0.294

Question: What about the relative viability (NCI-H1915; first compound 0.1 µM) of the same compound?
Answer: 0.33

Question: What about the relative viability (NCI-H1915; first compound 0.3162 µM) of the same compound?
Answer: 0.249

Question: What about the relative viability (NCI-H1915; first compound 1 µM) of the same compound?
Answer: 0.233

Question: What about the relative viability (ChaGo-K-1; first compound 0.01 µM) of the same compound?
Answer: 0.906

Question: What about the relative viability (ChaGo-K-1; first compound 0.03162 µM) of the same compound?
Answer: 0.902

Question: And the relative viability (ChaGo-K-1; first compound 0.1 µM)?
Answer: 0.951

Question: What about the relative viability (ChaGo-K-1; first compound 0.3162 µM) of the same compound?
Answer: 0.962

Question: And the relative viability (ChaGo-K-1; first compound 1 µM)?
Answer: 0.885

Question: What about the relative viability (NCI-H2405; first compound 0.01 µM) of the same compound?
Answer: 0.574

Question: What about the relative viability (NCI-H2405; first compound 0.03162 µM) of the same compound?
Answer: 0.669

Question: What about the relative viability (NCI-H2405; first compound 0.1 µM) of the same compound?
Answer: 0.796

Question: What about the relative viability (NCI-H2405; first compound 0.3162 µM) of the same compound?
Answer: 0.655

Question: And the relative viability (NCI-H2405; first compound 1 µM)?
Answer: 0.5

Question: What about the relative viability (201T; first compound 0.01 µM) of the same compound?
Answer: 0.716

Question: And the relative viability (201T; first compound 0.03162 µM)?
Answer: 0.725

Question: What about the relative viability (201T; first compound 0.1 µM) of the same compound?
Answer: 0.742

Question: What about the relative viability (201T; first compound 0.3162 µM) of the same compound?
Answer: 0.742

Question: What about the relative viability (201T; first compound 1 µM) of the same compound?
Answer: 0.605

Question: What about the relative viability (LCLC-97TM1; first compound 0.01 µM) of the same compound?
Answer: 0.161

Question: What about the relative viability (LCLC-97TM1; first compound 0.03162 µM) of the same compound?
Answer: 0.189

Question: And the relative viability (LCLC-97TM1; first compound 0.1 µM)?
Answer: 0.216

Question: And the relative viability (LCLC-97TM1; first compound 0.3162 µM)?
Answer: 0.168

Question: What about the relative viability (LCLC-97TM1; first compound 1 µM) of the same compound?
Answer: 0.185

Question: And the relative viability (NCI-H661; first compound 0.01 µM)?
Answer: 0.592

Question: And the relative viability (NCI-H661; first compound 0.03162 µM)?
Answer: 0.589

Question: What about the relative viability (NCI-H661; first compound 0.1 µM) of the same compound?
Answer: 0.569

Question: And the relative viability (NCI-H661; first compound 0.3162 µM)?
Answer: 0.563

Question: What about the relative viability (NCI-H661; first compound 1 µM) of the same compound?
Answer: 0.473

Question: And the relative viability (NCI-H1666; first compound 0.01 µM)?
Answer: 0.788

Question: And the relative viability (NCI-H1666; first compound 0.03162 µM)?
Answer: 0.834

Question: And the relative viability (NCI-H1666; first compound 0.1 µM)?
Answer: 0.93

Question: What about the relative viability (NCI-H1666; first compound 0.3162 µM) of the same compound?
Answer: 0.973

Question: What about the relative viability (NCI-H1666; first compound 1 µM) of the same compound?
Answer: 0.875

Question: What about the relative viability (H3255; first compound 0.01 µM) of the same compound?
Answer: 0.627

Question: And the relative viability (H3255; first compound 0.1 µM)?
Answer: 0.596

Question: What about the relative viability (H3255; first compound 0.3162 µM) of the same compound?
Answer: 0.711

Question: And the relative viability (H3255; first compound 1 µM)?
Answer: 0.566
